“Also recorded” adds a separate entry of the source. Like-named read-outs stand apart in the source and are kept apart here. Ends that are not written are not given here. Peptide text beside a SMILES is read from it.
Tests used:
[1] = tested on: Escherichia coli, ATCC 25922
Source text: The antibacterial activity against two strains of bacteria of a previously published cHABP1 peptide,^65,66 an antimicrobial peptide designed through artificial intelligence methods (HHC-36),^67 and a chimeric peptide cHABP1-GGG-HHC36 to functionalize calcium phosphate surfaces with antibacterial activity.

S. mutans (ATCC 25175) [2] = conditions: in solution; previously published values; cited from earlier work
[3] = tested on: S. epidermidis (ATCC 29886); conditions: in solution; previously published values; cited from earlier work
S. epidermidis = test: Antimicrobial activity on bio-coated titanium substrates, fluorescence imaging and ImageJ; assay type: cell-based
Source text: Two surfaces, 99% pure titanium foil (Alfa Aesar 43677, Ward Hill, Mass.) and titanium implant discs cut from standard rods used in posterior lumbar surgery (University of Kansas Medical Center Department of Neurosurgery, Kansas City, Kans.) were used for evaluation of TiBP-Spacer5-AMP biocoating antimicrobial activity. Titanium foils were cut into squares measuring 0.5 mm thick×1 cm×1 cm and 6 mm diameter implant rods were cut by the University of Kansas Medical Center Department of Neurosurgery with a standard orthopedic surgical rod cutter into 3 mm long disc segments. […]
Antimicrobial activity of TiBP-Spacer5-AMP biocoated titanium surfaces against each bacterial strain was evaluated by culturing bacteria in 24 well plates containing bio-coated surfaces or bare, untreated control surfaces. […] Stained bacteria were imaged with a fluorescence microscope (Olympus Spin Disk Epifluorescent microscope, Richmond Hill, Ontario, Canada) at an excitation/emission wave number provided by the manufacturer. Five representative fluorescence images were taken for each sample (n=3) and the bacteria were quantified using ImageJ Software and then subjected to statistical analysis.

S. mutans (ATCC 25175) [4] = test: MIC in solution, OD600 over 24 h; assay type: cell-based; parameters: key to Growth: Entries with a “+” indicate bacterial growth did occur at that concentration of TiBP-Spacer5-AMP; entries with a “−” indicate inhibition of bacterial growth; conditions: for Growth: S. mutans
Experimental: (§1) The antimicrobial activity of TiBP-Spacer5-AMP was evaluated against two bacterial strains, S. mutans (American Type Culture Collection (ATCC) 25175, Manassas, Va.) and S. epidermidis (ATCC 29886). S. mutans cultures were prepared using Brain Heart Infusion Broth (BHI, BD Difco, Franklin Lakes, N.J.) and S. epidermidis using Nutrient Broth (NB, BD Difco) according to ATCC protocols. Bacterial pellets obtained from ATCC were rehydrated in appropriate media of which several drops were used to streak either BHI or NB agar plates. Bacteria streaked agar plates were subsequently incubated for 24 h. Agar plates and cultures were incubated at 37° C. in the presence of 5% CO2-supplemented atmosphere for S. mutans and in aerobic atmosphere and 200 rpm shaking for S. epidermidis. Overnight cultures were made by aseptically transferring a single-colony forming unit (CFU) into 10 mL of appropriate broth media followed by incubation in appropriate conditions for 16 h. Bacteria from overnight cultures were used to inoculate fresh media and grown to mid-log phase.
(§2) The MIC of TiBP-Spacer5-AMP against S. mutans and S. epidermidis in solution was evaluated in 96 well plates (Corning Costar 3370, Corning, N.Y.) spectrophotometrically over a period of 24 h by obtaining a measurement for the optical density at 600 nm (OD600) every two hours. Optical density at 600 nm was measured using a Cytation3 microplate reader (Bio Tek Instruments, Winooski, Vt.). Bacteria grown to mid-log phase at a density of 10^7 CFU/mL were cultured at appropriate growth conditions in appropriate broth media only as a control or in broth media containing a range from 5-70 μM of TiBP-Spacer5-AMP for S. mutans and 1-10 μM for S. epidermidis. The OD600 measurements obtained, relating optical density to bacteria CFUs/mL, were plotted versus time to generate standard growth curves. The minimum concentration of TiBP-Spacer5-AMP at which no increase in optical density measurement, corresponding to no bacterial growth occurring was designated as the MIC. AlamarBlue assay (Invitrogen, Carlsbad, Calif.) was used for determination of a minimum bactericidal concentration of TiBP-Spacer5-AMP. Bacteria in broth media only and with the TiBPSpacer5-AMP concentrations described in the MIC experiments were prepared in 96 well plates. AlamarBlue reagent was added to experimental wells and incubated for two hours at 37° C. Experimental wells were observed and evaluated for color change. Wells corresponding to concentrations of TiBP-Spacer5-AMP where no color change occurred were determined to have bactericidal concentrations of the chimeric peptide.

[5] = tested on: S. epidermidis (ATCC 29886); test: MIC in solution, OD600 over 24 h; assay type: cell-based; parameters: key to Growth: Entries with a “+” indicate bacterial growth did occur at that concentration of TiBP-Spacer5-AMP; entries with a “−” indicate inhibition of bacterial growth; conditions: for Growth: S. epidermidis
Experimental: as §1, §2

NIH/3T3 fibroblast = test: Host cell attachment and spreading on coated titanium surfaces; assay type: cell-based; conditions: 60 μM bio-coating
Experimental: Host cell response was evaluated with a fibroblast cell line (NIH/3T3 ATCC CRL-1658). The fibroblast cells were cultured following the ATCC protocol. Briefly, cells were grown in DMEM media (Gibco 11995073, Carlsbad, Calif.) supplemented with 10% fetal bovine serum (Gibco 10437036) and 1% penicillin-streptomycin (Gibco 15070063) and incubated at 37° C. in a 5% CO2 atmosphere. Fibroblasts were passaged using 0.25% TrypsinEDTA (Gibco 25200072) and cells were counted to ensure correct seeding concentrations. Fibroblast cell response to 60 μM TiBP-Spacer5AMP bio-coating, 200 μg/mL collagen (Sigma C7661, St. Louis, Mo.) coating (positive control) and bare, untreated (negative control) titanium foil and implant surfaces was studied. Fibroblast cells at a concentration of 8×10^5 cells/mL were added to sterile 24 well plates containing TiBP-Spacer5-AMP coated, collagen coated, or bare, untreated foils or implants and incubated for 24 h at 37° C. in a 5% CO2 atmosphere. Fibroblast attachment and spreading were evaluated by fixing fibroblasts on titanium surfaces with 2% glutaraldehyde solution, followed by dehydration in 10%, 30%, 60%, 90% and 100% ethanol. Fixed fibroblasts on titanium surfaces were washed twice with PBS, permeabilized with TritonX (Sigma T8787), sealed with BSA (Fisher BioReagents BP671-10, Carlsbad, Calif.), and stained with Alexa Fluor488-Phalloidin dye (Invitrogen). Unbound dye was removed by washing with PBS and substrates were imaged with a fluorescent microscope at 4, 10 and 20 times magnification. Five representative images of each surface (n=3) were obtained and analyzed with ImageJ Software and then subjected to statistical analysis. Cell attachment was determined as number of cells per square millimeter and the percentage of the image surface covered by attached cells. Another measure of viability, metabolic activity was determined using a MTT (3-(4,5-dimethylthiazol-2-yl)-25-diphenyltetrazolium bromide) assay (Sigma M5655). […] Absorbance was measured at 570 nm.

S. mutans (ATCC 25175) [6] = test: AlamarBlue assay, minimum bactericidal concentration; assay type: cell-based
Experimental: as §1
(§3) The MIC of TiBP-Spacer5-AMP against S. mutans and S. epidermidis in solution was evaluated in 96 well plates (Corning Costar 3370, Corning, N.Y.) spectrophotometrically over a period of 24 h by obtaining a measurement for the optical density at 600 nm (OD600) every two hours. […]

[7] = tested on: S. epidermidis (ATCC 29886); test: as above; assay type: cell-based
Experimental: as §1, §3

## CSCC[C@H](NC(=O)[C@@H](N)CS)C(=O)N[C@@H](CC(C)C)C(=O)N1CCC[C@H]1C(=O)N[C@@H](Cc1c[nH]cn1)C(=O)N[C@@H](Cc1c[nH]cn1)C(=O)NCC(=O)N[C@@H](C)C(=O)N[C@@H](CS)C(=O)O [cHABP1, CMLPHHGAC (SEQ ID NO: 36)] (H-CMLPHHGAC-OH; N-terminus and C-terminus assumed)
S. mutans; S. mutans
  antibacterial activity by absorbance at 600 nm (FIG. 11): some antibacterial activity in the higher tested concentrations
[1]; E. coli
  antibacterial activity by absorbance at 600 nm (FIG. 11): some antibacterial activity in the higher tested concentrations

## KRWWKWWRR [HHC-36, KRWWKWWRR (SEQ ID NO: 37)]
S. mutans
  S. mutans IC50: 3 µg/mL
S. mutans; S. mutans
  MIC value: 10.8 µM
[1]
  E. coli IC50: 12 µg/mL
[1]; Escherichia coli, ATCC 25922
  MIC estimate: 21.5 µM

## LKLLKKLLKLLKKL (SEQ ID NO: 8) [AMP, antimicrobial peptide]
S. mutans (ATCC 25175) [2]
  Minimum Inhibitory Concentration (MIC) S. mutans: 38 µM
[3]
  Minimum Inhibitory Concentration (MIC) S. epidermidis: 4 µM

## RPRENRGRERGL-GGG-LKLLKKLLKLLKKL (SEQ ID NO: 9) (RPRENRGRERGLGGGLKLLKKLLKLLKKL) [TiBP-Spacer3-AMP, comparative chimeric peptide with shorter spacer]
S. mutans (ATCC 25175) [2]
  Minimum Inhibitory Concentration (MIC) S. mutans: 153 µM
[3]
  Minimum Inhibitory Concentration (MIC) S. epidermidis: 5 µM

## RPRENRGRERGLGSGGGLKLLKKLLKLLKKL [TiBP-Spacer5-AMP, RPRENRGRERGL-GSGGG-LKLLKKLLKLLKKL (SEQ ID NO: 10)]
S. epidermidis; implant discs coated at 10 μM
  Fold Improvement Compared to Uncoated Ti Surfaces, Implants: 48 fold
S. epidermidis; titanium foil coated at 10 μM
  Fold Improvement Compared to Uncoated Ti Surfaces, Foils: 33 fold
S. mutans (ATCC 25175) [4]; 5 μM
  Growth: +
S. mutans (ATCC 25175) [4]; 10 μM
  Growth: +
S. mutans (ATCC 25175) [4]; 20 μM
  Growth: +
S. mutans (ATCC 25175) [4]; 30 μM
  Growth: +
S. mutans (ATCC 25175) [4]; 40 μM
  Growth: +
S. mutans (ATCC 25175) [4]; 50 μM
  Growth: −
S. mutans (ATCC 25175) [4]; 60 μM
  Growth: −
S. mutans (ATCC 25175) [4]; 70 μM
  Growth: −
S. mutans (ATCC 25175) [4]; compared to TiBP-Spacer3-AMP
  improvement (decrease) of MIC against S. mutans: three-fold
S. mutans (ATCC 25175) [4]; in solution
  Minimum Inhibitory Concentration (MIC) S. mutans: 50 µM
[5]; 1 μM
  Growth: +
[5]; 2 μM
  Growth: +
[5]; 3 μM
  Growth: +
[5]; 4 μM
  Growth: +
[5]; 5 μM
  Growth: +
[5]; 6 μM
  Growth: +
[5]; 7 μM
  Growth: +
[5]; 8 μM
  Growth: −
[5]; in solution
  Minimum Inhibitory Concentration (MIC) S. epidermidis: 8 µM
NIH/3T3 fibroblast; titanium foils, compared to untreated control
  fibroblast surface coverage (spreading): greater coverage
NIH/3T3 fibroblast; titanium implants, compared to collagen positive control
  adhesion and spreading: statistically comparable to the positive collagen controls
NIH/3T3 fibroblast; titanium implants, compared to untreated control
  cell attachment and spreading: greater cell attachment and spreading compared to untreated controls; also recorded: statistically greater cell attachment and spreading properties
S. mutans (ATCC 25175) [6]
  bactericidal concentration: 60 µM
[7]
  bactericidal concentration: 10 µM
